The record followed here is EP0508792A1, “Anti-tumor and anti-psoriatic agents” (SCHERING CORPORATION, priority 1991, dated 1992).

The first test addresses PKC. Nature of the test: Mixed micellar protein kinase C (PKC) assay, in vitro inhibition of PKC. The format is biochemical. The note with it: partially purified rat brain PKC; histone III-S substrate; 23°C, 15 minutes; 2% DMSO. How it is done:
The below listed Test Methods A and B were run in accordance with the procedures described in Bishop, W.R., Petrin, J., Wang, L., Ramesh, U., and Doll, R.J. (1990) Biochemical Pharmacology 40: No. 9, pp. 2129-2135 and Hannun et al, J. Biol. Chem. 260, 10039-10043, (1985), which are herein incorporated by reference.The following modifications were made in this procedure:
A. Protein Kinase C ("PKC") Protocol
Mixed micellular protein kinase C assays were conducted by the methods described in the two articles cited just above, (namely, Bishop et al, and Hannun et al), in a reaction mixture (0.25 mL total volume) containing: 20 mM Tris-HCl (pH 7.5); […] histone III-S; 10 mM MgCl2; 5 mM [g-32P]ATP (4 x 10^6 cpm/nmol); […] CaCl2; 32 mg/mL of phosphatidylserine; […] of 1-oleoyl-2-acetyl-glycerol and various concentrations of compounds of this invention added from a dimethyl-sulfoxide (DMSO) stock solution. The final concentration of DMSO in the reaction was 2% w/v. Reactions were started by addition of approximately […] of partially purified rat brain PKC and allowed to proceed at 23°C for 15 minutes. Reactions were terminated by collection of trichloroacetic acid-precipitated phosphorylated histone on GF/C filters using a Brandel Cell Harvester (Model No. M-24-R).
On to `O=C1NC(=O)c2c1c1c3ccccc3n3c1c1c2c2ccccc2n1[C@@H]1O[C@H]3C[C@H]1Cn1ccnc1` (relative stereo) [Example 48], for which the IC50 is 7 nM.

In the case of `O=C1NC(=O)c2c1c1c3ccccc3n3c1c1c2c2ccccc2n1[C@@H]1O[C@H]3C[C@@H]1CO` (relative stereo) [Example 35], the IC50 turned out to be 7.5 nM.

`Cc1ccc2c(c1)c1c3c(c4c5cc(C)ccc5n5c4c1n2[C@@H]1CC[C@H]5O1)C(=O)NC3=O` [Example 30] gave an IC50 of 50 nM.

Take `NC(=O)[C@H]1C[C@@H]2O[C@H]1n1c3ccccc3c3c4c(c5c6ccccc6n2c5c31)C(=O)NC4=O` (relative stereo) [Example 37]: the IC50 is 115 nM.

With `O=C1NC(=O)c2c1c1c3ccccc3n3c1c1c2c2ccccc2n1[C@@H]1O[C@H]3C[C@H]1C(=O)O` (relative stereo) [Example 63], the IC50 is 20 nM.

Molecule `CN(C)C[C@@H]1C[C@@H]2O[C@H]1n1c3ccccc3c3c4c(c5c6ccccc6n2c5c31)C(=O)NC4=O` (relative stereo) [Example 49] registered an IC50 of 4 nM.

In the case of `[N-]=[N+]=NC[C@H]1C[C@@H]2O[C@H]1n1c3ccccc3c3c4c(c5c6ccccc6n2c5c31)C(=O)NC4=O` (relative stereo) [Example 41], the IC50 turned out to be 7.5 nM.

As for `Cc1ccc2c(c1)c1c3c(c4c5cc(C)ccc5n5c4c1n2[C@@H]1CC[C@H]5O1)C(=N)NC3=O` (relative stereo) [Example 29], the IC50 is 42 nM.

As for `NC(=O)[C@@H]1C[C@@H]2O[C@H]1n1c3ccccc3c3c4c(c5c6ccccc6n2c5c31)C(=O)NC4=O` (relative stereo) [Example 67], the IC50 came to 0.6 nM.

For the molecule `CS(=O)(=O)OC[C@H]1C[C@@H]2O[C@H]1n1c3ccccc3c3c4c(c5c6ccccc6n2c5c31)C(=O)NC4=O` (relative stereo) [Example 39], the IC50 is 5 nM.

In turn, `O=C(NC[C@@H]1C[C@@H]2O[C@H]1n1c3ccccc3c3c4c(c5c6ccccc6n2c5c31)C(=O)NC4=O)c1ccccc1` (relative stereo) [Example 46] returned an IC50 of 230 nM.

Consider `Cc1ccc2c(c1)c1c3c(c4c5cc(C)ccc5n5c4c1n2[C@@H]1C[C@@H](CO)[C@H]5O1)C(=O)NC3=O` (relative stereo) [Example 57], for which the IC50 came out at 23 nM.

In the case of `S=C1NC(=S)c2c1c1c3ccccc3n3c1c1c2c2ccccc2n1[C@H]1CC[C@@H]3O1` [Example 25], the IC50 worked out at 13 nM.

On to `CS(=O)(=O)OC[C@@H]1C[C@@H]2O[C@H]1n1c3ccccc3c3c4c(c5c6ccccc6n2c5c31)C(=O)NC4=O` (relative stereo) [Example 40], for which the IC50 turned out to be 15 nM.

Turning to `NC[C@@H]1C[C@@H]2O[C@H]1n1c3ccccc3c3c4c(c5c6ccccc6n2c5c31)C(=O)NC4=O` (relative stereo) [Example 45], the IC50 was found to be 13 nM.

The molecule `Cc1ccc2c(c1)c1c(Br)c(Br)c3c4cc(C)ccc4n4c3c1n2[C@@H]1CC[C@H]4O1` [Example 27] showed an IC50 of 18 nM.

Molecule `Cc1ccc2c(c1)c1c3c(c4c5cc(C)ccc5n5c4c1n2[C@@H]1C[C@H](CO)[C@H]5O1)C(=O)NC3=O` (relative stereo) [Example 58] returned an IC50 of 23 nM.

In turn, `CN(C)C(=O)[C@@H]1C[C@@H]2O[C@H]1n1c3ccccc3c3c4c(c5c6ccccc6n2c5c31)C(=O)NC4=O` (relative stereo) [Example 68] registered an IC50 of 1 nM.

In turn, `O=C1NC(=O)c2c1c1c3ccccc3n3c1c1c2c2ccccc2n1[C@@H]1O[C@H]3C[C@H]1CO` (relative stereo) [Example 36] registered an IC50 of 10 nM.

The molecule `CNC(=O)[C@@H]1C[C@@H]2O[C@H]1n1c3ccccc3c3c4c(c5c6ccccc6n2c5c31)C(=O)NC4=O` (relative stereo) [Example 65] displayed an IC50 of 0.5 nM.

With `CC(C)(C)OC(=O)CNC(=O)[C@@H]1C[C@@H]2O[C@H]1n1c3ccccc3c3c4c(c5c6ccccc6n2c5c31)C(=O)NC4=O` (relative stereo) [Example 64], the IC50 worked out at 19 nM.

For `O=C1NC(=O)c2c1c1c3ccccc3n3c1c1c2c2ccccc2n1[C@@H]1O[C@H]3C[C@H]1C(=O)NCc1ccccc1` (relative stereo) [Example 66], the IC50 was 20 nM.

For `Cc1ccc2c(c1)c1c(C#N)c(C#N)c3c4cc(C)ccc4n4c3c1n2[C@@H]1CC[C@H]4O1` [Example 28], the IC50 stood at 58 nM.

The molecule `CO[C@H]1C[C@@H]2O[C@H]1n1c3ccccc3c3c4c(c5c6ccccc6n2c5c31)C(=O)NC4=O` (relative stereo) [Example 38] had an IC50 of 1.4 nM.

With `O=C(O)CNC(=O)[C@@H]1C[C@@H]2O[C@H]1n1c3ccccc3c3c4c(c5c6ccccc6n2c5c31)C(=O)NC4=O` (relative stereo) [Example 69], the IC50 is 0.8 nM.

With `O=C1NC(O)c2c1c1c3ccccc3n3c1c1c2c2ccccc2n1[C@H]1CC[C@@H]3O1` (stereo partly drawn) [Example 26], the IC50 is 19 nM.

The next test relates to Normal Human Keratinocytes (NHEK). Nature of the test: 3H thymidine uptake in normal human keratinocytes (NHEK). The class given is cell-based. The conditions noted are these: Homo sapiens, 20 h; dose response study, 3H thymidine uptake in NHEK; read-out: IC₅₀. How it is done: ^3H Thymidine Uptake in Normal Human Keratinocytes (NHEK): Effects of Compounds of the Invention
Second passage NHEK cells grown in MCDB 153 media with a 5% CO2 air mixture at 37° were used for experiments. Compounds of the invention which were tested were prepared at 5mM stock solutions in DMSO. Cells were grown to 60-80% confluency in 6 well trays. Compounds were added to give a concentration of 5x10⁻⁶ molar and cultures were simultaneously pulsed with 1 microCurie/mL ^3H thymidine for 20 hours. Cells were then harvested and tritium was counted using a liquid scintillation counter; results are the average of 8 wells per compound. In the control, when no compound is employed, there is 0% inhibition of thymidine uptake.
A dose response study of the compound from Example 35, using the just above described test was conducted. Concentrations of the compound from Example 35 ranging from 5x10⁻⁵ to 5x10⁻⁶ M in tenfold dilutions were conducted.
Consider `O=C1NC(=O)c2c1c1c3ccccc3n3c1c1c2c2ccccc2n1[C@@H]1O[C@H]3C[C@@H]1CO` (relative stereo) [Example 35], for which the IC50 came out at 1720 nM.

Staying with this test, now noted: compound at 5x10⁻⁶ molar; 3H thymidine pulse 20 hours; average of 8 wells.
Consider `O=C1NC(=O)c2c1c1c3ccccc3n3c1c1c2c2ccccc2n1[C@@H]1O[C@H]3C[C@@H]1CO` (relative stereo) [Example 35], for which the “% Inhibition of Control” value is reported as 99.2%.

Turning to `O=C1NC(=O)c2c1c1c3ccccc3n3c1c1c2c2ccccc2n1[C@H]1CC[C@@H]3O1` [Example 22], the “% Inhibition of Control” value was 77.3%.

As for `O=C1NCc2c1c1c3ccccc3n3c1c1c2c2ccccc2n1C1CCC3O1` (racemic) [Example 23], the “% Inhibition of Control” value is 78.8%.
